{"source": "patent US8455530B2", "about": "“Crystalline form of an alkoxyimidazol-1-ylmethyl biphenyl carboxylic acid” (Theravance, Inc., priority 2008, dated 2013)", "key": {"[1]": {"test": "Thermal stability (heating at 60° C.)", "assay_type": "physicochemical", "procedure": "A sample of the crystalline form prepared as in Example 6 was heated at 60° C. for 5 days. The sample lost only 2% of its purity, thus the crystalline compound of the invention has excellent thermal stability."}, "human AT1 receptor": {"molecular_target": "T1, human AT1 receptor (Homo sapiens, UniProt P30556)", "T1 construct": "expressed in transfected cells; membrane preparation", "T1 sequence (P30556 1-359)": "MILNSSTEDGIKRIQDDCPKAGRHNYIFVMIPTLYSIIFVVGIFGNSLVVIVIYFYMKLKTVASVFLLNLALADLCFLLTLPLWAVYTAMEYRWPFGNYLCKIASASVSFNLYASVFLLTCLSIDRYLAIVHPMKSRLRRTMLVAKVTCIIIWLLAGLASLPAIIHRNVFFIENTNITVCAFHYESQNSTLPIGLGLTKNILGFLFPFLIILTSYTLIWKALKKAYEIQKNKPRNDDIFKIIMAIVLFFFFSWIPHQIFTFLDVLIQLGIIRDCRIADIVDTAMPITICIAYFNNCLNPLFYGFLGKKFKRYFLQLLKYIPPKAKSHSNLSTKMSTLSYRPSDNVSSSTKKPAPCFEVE", "test": "AT1 radioligand binding assay ([Eu]AngII displacement)", "settings": "[Eu]AngII at 2 nM, membranes of CHO-K1 cells expressing human AT1; read-out: pKi at the AT1 receptor (converted)", "procedure": "These in vitro assays were used to assess the ability of test compounds to bind to the AT1 and the AT2 receptors.\nMembrane Preparation From Cells Expressing Human AT1 or AT2 Receptors\nChinese hamster ovary (CHO-K1) derived cell lines stably expressing the cloned human AT1 or AT2 receptors, respectively, were grown in HAM's-F12 medium supplemented with 10% fetal bovine serum, 10 μg/ml penicillin/streptomycin, and 500 μg/ml geneticin in a 5% CO2 humidified incubator at 37° C. AT2 receptor expressing cells were grown in the additional presence of 100 nM PD123,319 (AT2 antagonist). When cultures reached 80-95% confluence, the cells were washed thoroughly in PBS and lifted with 5 mM EDTA. Cells were pelleted by centrifugation and snap frozen in MeOH-dry ice and stored at −80° C. until further use.\nFor membrane preparation, cell pellets were resuspended in lysis buffer (25 mM Tris/HCl pH 7.5 at 4° C., 1 mM EDTA, and one tablet of Complete Protease Inhibitor Cocktail Tablets with 2 mM EDTA per 50 mL buffer (Roche cat.#1697498, Roche Molecular Biochemicals, Indianapolis, Ind.)) and homogenized using a tight-fitting Dounce glass homogenizer (10 strokes) on ice. The homogenate was centrifuged at 1000×g, the supernatant was collected and centrifuged at 20,000×g. […] Protein concentration of the membrane suspension was determined by the method described in Bradford (1976) Anal Biochem. 72:248-54. […]"}, "[2]": {"test": "Solid state stability assessment (storage, HPLC purity)", "assay_type": "physicochemical", "settings": "for change in chemical purity after 28 days of storage at 40° C.: HPLC", "procedure": "Samples of the crystalline freebase prepared as in Example 7, about 100 mg each, were stored in multiple vials at 5° C. (closed container), 25° C. (closed container), and at 40° C. (closed container). At specific intervals, the entire contents of a representative vial was analyzed by the following HPLC method:\nColumn: Agilent Zorbox SB-C18, 4.6×250 mm, 5 μm (Part No. 880975-902). Mobile Phase A: 80% H2O, 20% MeCN, 0.01% TFA. Mobile Phase B: 80% MeCN, 20% H2O, 0.01% TFA. Flow rate: 1 mL/min. Injection Volume: 20 μL. Detector: 250 nm.\nThe purity of the samples was determined by HPLC area percentage (% AUC)."}, "[3]": {"test": "Solid state stability assessment (storage, HPLC purity)", "assay_type": "physicochemical", "settings": "for purity at time 0: HPLC area percentage"}, "[4]": {"test": "Dynamic moisture sorption (DMS) assessment", "assay_type": "physicochemical", "procedure": "A dynamic moisture sorption (DMS) assessment (also known as a moisture sorption-desorption profile) was performed for a sample of the crystalline form of Example 2 using a VTI atmospheric microbalance, SGA-100 system (VTI Corp., Hialeah, Fla. 33016). A sample size of approximately 4.27 mg was used and the humidity was set at the ambient value at the start of the analysis. The DMS analysis consisted of a scan rate of 5% RH/step over the full humidity range of 2% relative humidity (RH) to 90% RH. The DMS run was performed isothermally at 25° C."}, "[5]": {"test": "Differential scanning calorimetry (thermal stability)", "assay_type": "physicochemical", "settings": "10° C./min from 22° C. to 250° C.; listed as crystalline compound of the invention", "procedure": "Differential scanning calorimetry (DSC) was performed using a TA Instruments Model Q-100 module with a Thermal Analyst controller. Data were collected and analyzed using TA Instruments Thermal Solutions software. A 1.64 mg sample of the crystalline form of Example 2 was accurately weighed into a covered aluminum pan. After a 5 minute isothermal equilibration period at 22° C., the sample was heated using a linear heating ramp of 10° C./min from 22° C. to 250° C."}, "[6]": {"test": "Micronization with a jet mill, particle size distribution", "assay_type": "physicochemical", "excerpt": "A sample of the crystalline freebase prepared as in Example 7 was micronized with a jet mill to give a free-flowing white powder. No issues were encountered during the micronization process."}, "[7]": {"settings": "closed container, listed as amorphous freebase"}, "[8]": {"settings": "closed container, listed as crystalline freebase"}, "[9]": {"settings": "all conditions: 5° C., 25° C. and 40° C., closed container"}}, "note": "“Also recorded” adds a separate entry of the source. Structures can show the parent of a compound that is named as a salt."}
{"molecule": "CCOc1nc(CC)c(CNC(=O)[C@@H](S)CC(C)C)n1Cc1ccc(-c2ccccc2C(=O)O)cc1F", "note": "[Example 6, 4′-{2-Ethoxy-4-ethyl-5-[((S)-2-mercapto-4-methylpentanoylamino)methyl]imidazol-1-ylmethyl}-3′-fluorobiphenyl-2-carboxylic Acid]", "values": [{"measurement": "loss of purity", "setting": "[1]; heated at 60° C. for 5 days", "result": 2, "unit": "%"}]}
{"molecule": "CCOc1nc(CC)c(CNC(=O)[C@@H](S)CC(C)C)n1Cc1ccc(-c2ccccc2C(=O)O)cc1F", "note": "[Example 1, 4′-{2-Ethoxy-4-ethyl-5-[((S)-2-mercapto-4-methylpentanoylamino)methyl]imidazol-1-ylmethyl}-3′-fluorobiphenyl-2-carboxylic Acid]", "values": [{"measurement": "Ki", "setting": "human AT1 receptor", "result": "< 100", "unit": "nM"}, {"measurement": "loss of purity", "setting": "[1]; heated at 60° C. for 1 day", "result": "about 50%"}, {"measurement": "purity after 14 days at 40° C.", "setting": "[2]; [7]", "result": 82.4, "unit": "% AUC"}, {"measurement": "change in chemical purity after 28 days of storage at 40° C.", "setting": "[2]; 28 days at 40° C., listed as amorphous freebase", "result": "decline in purity"}, {"measurement": "purity after 7 days at 40° C.", "setting": "[3]; [7]", "result": 86.8, "unit": "% AUC"}, {"measurement": "purity at time 0", "setting": "[3]; listed as amorphous freebase", "result": 97.5, "unit": "% AUC"}]}
{"molecule": "CCOc1nc(CC)c(CNC(=O)[C@@H](S)CC(C)C)n1Cc1ccc(-c2ccccc2C(=O)O)cc1F", "note": "[Example 2, 4′-{2-Ethoxy-4-ethyl-5-[((S)-2-mercapto-4-methylpentanoylamino)methyl]imidazol-1-ylmethyl}-3′-fluorobiphenyl-2-carboxylic Acid]", "values": [{"measurement": "weight gain in the humidity range of 40-75% RH", "setting": "[4]; unmicronized", "result": "less than 1%"}, {"measurement": "weight gain when exposed to up to 75% relative humidity", "setting": "[4]; up to 75% RH, 25° C.", "result": "less than 1%"}, {"measurement": "thermal decomposition (DSC thermograph)", "setting": "[5]", "result": "no significant thermal decomposition below about 150 °C"}]}
{"molecule": "CCOc1nc(CC)c(CNC(=O)[C@@H](S)CC(C)C)n1Cc1ccc(-c2ccccc2C(=O)O)cc1F", "note": "[Example 7, 4′-{2-Ethoxy-4-ethyl-5-[((S)-2-mercapto-4-methylpentanoylamino)methyl]imidazol-1-ylmethyl}-3′-fluorobiphenyl-2-carboxylic Acid]", "values": [{"measurement": "weight gain in the humidity range of 40-75% RH", "setting": "[4]; micronized material", "result": 0.7, "unit": "%"}, {"measurement": "purity after 14 days at 40° C.", "setting": "[2]; [8]", "result": 98.3, "unit": "% AUC"}, {"measurement": "change in chemical purity after 28 days of storage at 40° C.", "setting": "[2]; 28 days at 40° C., listed as crystalline freebase", "result": "no detectable change in chemical purity; also recorded: minimal chemical degradation"}, {"measurement": "change in chemical purity after 28 days of storage", "setting": "[2]; [9]", "result": "no detectable change in chemical purity"}, {"measurement": "particle size D (v, 0.1)", "setting": "[6]; Post-Micronization", "result": 0.79, "unit": "μm"}, {"measurement": "particle size D (v, 0.5)", "setting": "[6]; Post-Micronization", "result": 2.59, "unit": "μm"}, {"measurement": "particle size D (v, 0.9)", "setting": "[6]; Post-Micronization", "result": 7.07, "unit": "μm"}, {"measurement": "particle size D (v, 0.1)", "setting": "[6]; Pre-Micronization", "result": 1.73, "unit": "μm"}, {"measurement": "particle size D (v, 0.5)", "setting": "[6]; Pre-Micronization", "result": 11.32, "unit": "μm"}, {"measurement": "particle size D (v, 0.9)", "setting": "[6]; Pre-Micronization", "result": 50.73, "unit": "μm"}, {"measurement": "purity after 7 days at 40° C.", "setting": "[3]; [8]", "result": 98.4, "unit": "% AUC"}, {"measurement": "purity after 28 days at 40° C.", "setting": "[3]; 28 days at 40° C., closed container, listed as crystalline freebase", "result": 98.4, "unit": "% AUC"}, {"measurement": "purity at time 0", "setting": "[3]; listed as crystalline freebase", "result": 98.5, "unit": "% AUC"}, {"measurement": "change in the appearance of the material after 28 days of storage", "setting": "[3]; [9]", "result": "no observable change in the appearance"}]}
{"molecule": "CCOc1nc(CC)c(CNC(=O)[C@@H](S)CC(C)C)n1Cc1ccc(-c2ccccc2C(=O)O)cc1F", "note": "[amorphous TFA salt, 4′-{2-ethoxy-4-ethyl-5-[((S)-2-mercapto-4-methylpentanoyl-amino)methyl]imidazol-1-ylmethyl}-3′-fluorobiphenyl-2-carboxylic acid]", "values": [{"measurement": "purity after 14 days at 40° C.", "setting": "[2]; closed container", "result": 62.2, "unit": "% AUC"}, {"measurement": "change in chemical purity after 28 days of storage at 40° C.", "setting": "[2]; 28 days at 40° C.", "result": "decline in purity"}, {"measurement": "purity after 28 days at 40° C.", "setting": "[2]; 28 days at 40° C., closed container", "result": 47.1, "unit": "% AUC"}, {"measurement": "purity at time 0", "setting": "[2]; HPLC area percentage, time 0", "result": 97.7, "unit": "% AUC"}, {"measurement": "purity after 7 days at 40° C.", "setting": "[3]; closed container", "result": 73.5, "unit": "% AUC"}]}
